From PubChem BioAssay (NCI)
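Cultured in 96-well plates, cells were exposed to test compound for 48 hours across five concentrations. GI50 = concentration required for 50% inhibition of growth. TGI marks complete inhibition of growth.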

Experiments:
Assay in all cases: NCI-60 cell line screen, 48 h
NCI-H226 lung = test system: NCI-H226 lung
NCI-H23 lung = test system: NCI-H23 lung
NCI-H460 lung = test system: NCI-H460 lung
NCI-H522 lung = test system: NCI-H522 lung
NCI/ADR-RES ovarian = test system: NCI/ADR-RES ovarian
OVCAR-3 ovarian = test system: OVCAR-3 ovarian
OVCAR-4 ovarian = test system: OVCAR-4 ovarian
OVCAR-5 ovarian = test system: OVCAR-5 ovarian
OVCAR-8 ovarian = test system: OVCAR-8 ovarian
PC-3 prostate = test system: PC-3 prostate
RPMI-8226 leukemia = test system: RPMI-8226 leukemia
RXF 393 renal = test system: RXF 393 renal
SF-268 CNS = test system: SF-268 CNS
SF-295 CNS = test system: SF-295 CNS
SF-539 CNS = test system: SF-539 CNS
SK-MEL-2 melanoma = test system: SK-MEL-2 melanoma
SK-MEL-28 melanoma = test system: SK-MEL-28 melanoma
SK-MEL-5 melanoma = test system: SK-MEL-5 melanoma
SK-OV-3 ovarian = test system: SK-OV-3 ovarian
SN12C renal = test system: SN12C renal
SNB-19 CNS = test system: SNB-19 CNS
SNB-75 CNS = test system: SNB-75 CNS
SW-620 colon = test system: SW-620 colon
T-47D breast = test system: T-47D breast
TK-10 renal = test system: TK-10 renal
U251 CNS = test system: U251 CNS
UACC-257 melanoma = test system: UACC-257 melanoma
UACC-62 melanoma = test system: UACC-62 melanoma
UO-31 renal = test system: UO-31 renal

SMILES: COC(=O)C[C@](O)(CCCC(C)C)C(=O)O[C@H]1C(OC)=C[C@@]23CCCN2CCc2cc4c(cc2[C@@H]13)OCO4
- GI50 (NCI-H226 lung): 0.94 µM
- TGI (NCI-H226 lung): 7.23 µM
- GI50 (NCI-H23 lung): 1.35 µM
- TGI (NCI-H23 lung): 6.66 µM
- GI50 (NCI-H460 lung): 0.695 µM
- TGI (NCI-H460 lung): 4.78 µM
- GI50 (NCI-H522 lung): 1.03 µM
- TGI (NCI-H522 lung): 2.97 µM
- GI50 (NCI/ADR-RES ovarian): 2.55 µM
- TGI (NCI/ADR-RES ovarian): 19 µM
- GI50 (OVCAR-3 ovarian): 1.13 µM
- TGI (OVCAR-3 ovarian): 8.52 µM
- GI50 (OVCAR-4 ovarian): 1.64 µM
- TGI (OVCAR-4 ovarian): 17 µM
- GI50 (OVCAR-5 ovarian): 2.56 µM
- TGI (OVCAR-5 ovarian): 15.4 µM
- GI50 (OVCAR-8 ovarian): 1.79 µM
- TGI (OVCAR-8 ovarian): 19.7 µM
- GI50 (PC-3 prostate): 1.38 µM
- TGI (PC-3 prostate): 14.6 µM
- GI50 (RPMI-8226 leukemia): 1.05 µM
- TGI (RPMI-8226 leukemia): 2.99 µM
- GI50 (RXF 393 renal): 0.641 µM
- TGI (RXF 393 renal): 2.18 µM
- GI50 (SF-268 CNS): 5.01 µM
- TGI (SF-268 CNS): 22.8 µM
- GI50 (SF-295 CNS): 1.49 µM
- TGI (SF-295 CNS): 11.6 µM
- GI50 (SF-539 CNS): 0.838 µM
- TGI (SF-539 CNS): 2.24 µM
- GI50 (SK-MEL-2 melanoma): 3.96 µM
- TGI (SK-MEL-2 melanoma): 12.7 µM
- GI50 (SK-MEL-28 melanoma): 1.29 µM
- TGI (SK-MEL-28 melanoma): 8.71 µM
- GI50 (SK-MEL-5 melanoma): 0.823 µM
- TGI (SK-MEL-5 melanoma): 2.45 µM
- GI50 (SK-OV-3 ovarian): 1.62 µM
- TGI (SK-OV-3 ovarian): 38.2 µM
- GI50 (SN12C renal): 3.62 µM
- TGI (SN12C renal): 23.2 µM
- GI50 (SNB-19 CNS): 0.917 µM
- TGI (SNB-19 CNS): 6.24 µM
- GI50 (SNB-75 CNS): 1.97 µM
- TGI (SNB-75 CNS): 13.9 µM
- GI50 (SW-620 colon): 1.49 µM
- TGI (SW-620 colon): 32.5 µM
- GI50 (T-47D breast): 1.62 µM
- TGI (T-47D breast): 31.8 µM
- GI50 (TK-10 renal): 4.12 µM
- TGI (TK-10 renal): 27.3 µM
- GI50 (U251 CNS): 1.21 µM
- TGI (U251 CNS): 11.8 µM
- GI50 (UACC-257 melanoma): 2.16 µM
- TGI (UACC-257 melanoma): 15.6 µM
- GI50 (UACC-62 melanoma): 3.15 µM
- TGI (UACC-62 melanoma): 16.6 µM
- GI50 (UO-31 renal): 1.07 µM
- TGI (UO-31 renal): 11.2 µM
